Results on 20 compounds are retold here after PubChem BioAssay (NCI).

Where “and” joins values, the source holds several entries; their conditions need not be identical. Equal entries are not always repeated.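 Briefly, cells in 96-well plates were exposed to five compound concentrations for 48 h, and endpoints were estimated by linear interpolation. At the GI50, growth is halved. TGI denotes the concentration required for complete inhibition of growth.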

Some test systems named below: UO-31 renal; HCT-116 colon; HL-60(TB) leukemia; A549 NSCLC; NCI-H522 lung; SK-MEL-28 melanoma; NCI-H23 lung; NCI/ADR-RES ovarian; MALME-3M melanoma.
What all share (assay): growth of human tumour cells (NCI), 48 h

Take `CC(C)=CCC(O)C1=CC(=O)c2c(O)ccc(O)c2C1=O` (stereo not drawn): the TGI was determined as 2.93 µM in the assay on UO-31 renal; 2.6 µM in the assay on HCT-116 colon; 0.0659 µM in the assay with HL-60(TB) leukemia; 17.7 µM with A549 NSCLC; 0.694 µM with NCI-H522 lung; 2.86 µM with SK-MEL-28 melanoma. In the assay on NCI-H23 lung, this compound came in with a TGI of 2.66 µM.

Take `O=C1CCCCN1c1ccccc1C#C/C=C\C#Cc1ccccc1C(F)(F)F`: the GI50 was 2 µM in the assay with UO-31 renal; 1.01 µM with HCT-116 colon; 1.27 µM in the assay on HL-60(TB) leukemia; 1.57 µM in the assay with A549 NSCLC; 1.19 µM in the assay on NCI-H522 lung; 0.946 µM with NCI/ADR-RES ovarian. In addition, the GI50 with SK-MEL-28 melanoma was 1.09 µM; in the assay on NCI-H23 lung, 1.26 µM; in the assay on MALME-3M melanoma, 2.29 µM. The TGI in the assay on UO-31 renal stood at 13.6 µM; in the assay with HCT-116 colon it was 2.59 µM; in the assay with HL-60(TB) leukemia, 3.29 µM; in the assay with A549 NSCLC, 5.16 µM; with NCI-H522 lung, 3.1 µM; with NCI/ADR-RES ovarian, 2.48 µM. Besides, the values for the TGI with SK-MEL-28 melanoma, in the assay on NCI-H23 lung and in the assay on MALME-3M melanoma were 3.36 µM, 4 µM and 39.2 µM, respectively.

`CCCCCCCCCCCCCCCC[N+](C)(C)Cc1ccccc1`: the GI50 was 2.98 µM and 2.01 µM with UO-31 renal; 0.859 µM in the assay with HL-60(TB) leukemia; 14.4 µM and 12 µM with NCI/ADR-RES ovarian; 1.68 µM in the assay with SK-MEL-28 melanoma; 1.24 µM in the assay on MALME-3M melanoma. Moreover, the TGI in the assay with UO-31 renal was 22.8 µM and 8.18 µM; in the assay on HL-60(TB) leukemia, 2.45 µM; in the assay on NCI/ADR-RES ovarian, 45.1 µM and 42 µM; with SK-MEL-28 melanoma, 3.19 µM; with MALME-3M melanoma it was 2.72 µM.

For `Cc1ccc(-n2c3nc(=O)[nH]c(=O)c-3cc3cc([N+](=O)[O-])ccc32)cc1`, the GI50 was 23 µM in the assay on UO-31 renal; 5.26 µM in the assay with HCT-116 colon; 3.98 µM with HL-60(TB) leukemia; 44.6 µM in the assay with A549 NSCLC; 33.2 µM with NCI-H522 lung; 10.7 µM in the assay with NCI/ADR-RES ovarian. Also, the GI50 was 15.7 µM in the assay with SK-MEL-28 melanoma and 13.4 µM with NCI-H23 lung. The TGI with UO-31 renal is 68.2 µM; in the assay on HCT-116 colon it was 21 µM; with HL-60(TB) leukemia it was over 100 µM; in the assay with A549 NSCLC, over 100 µM; in the assay on NCI-H522 lung, 77.5 µM; in the assay on NCI/ADR-RES ovarian, 34.4 µM. Also, the results for the TGI with SK-MEL-28 melanoma and in the assay on NCI-H23 lung were 42.2 µM and 29.6 µM, respectively.

For the compound `COc1nc(NC2OC(COC(C)=O)C(OC(C)=O)C(OC(C)=O)C2OC(C)=O)c2c(OC(C)=O)cc(=O)oc2n1` (stereo not drawn), the TGI in the assay with UO-31 renal, in the assay with HCT-116 colon, in the assay on HL-60(TB) leukemia, in the assay with A549 NSCLC, with NCI-H23 lung and in the assay on MALME-3M melanoma was over 100 µM each time.

On to `CCc1c(OC(C)=O)c2c(NC3OCC(OC(C)=O)C(OC(C)=O)C3OC(C)=O)nc(SC)nc2oc1=O` (stereo not drawn), for which the TGI in the assay on UO-31 renal, in the assay with HCT-116 colon, in the assay with HL-60(TB) leukemia, in the assay with A549 NSCLC, in the assay on NCI-H23 lung and in the assay with MALME-3M melanoma was over 100 µM in each case.

With `O=C(Nc1ccccc1-c1nn(C(=S)Nc2ccccc2)c(=S)n(C(=S)Nc2ccccc2)c1=O)C(F)(F)F`, the TGI in the assay with UO-31 renal is 50.3 µM; with HCT-116 colon it was over 51.4 µM; in the assay with HL-60(TB) leukemia, 58.5 µM; with A549 NSCLC it was over 100 µM; in the assay with NCI-H522 lung it was 58.5 µM; in the assay with SK-MEL-28 melanoma it was over 100 µM. Also, the TGI with NCI-H23 lung is over 31.6 µM; with MALME-3M melanoma, over 79.1 µM.

On to `O=c1ccc2ccccc2cc1[O-].O=c1ccc2ccccc2cc1[O-].[O]=[U+2]=[O]`, for which the GI50 in the assay on HL-60(TB) leukemia was 14 µM; in the assay on A549 NSCLC, 4.78 µM; with NCI-H522 lung, 11.6 µM; with SK-MEL-28 melanoma, 15.3 µM; with NCI-H23 lung, 27.2 µM; in the assay on MALME-3M melanoma, 5.72 µM. The TGI in the assay with HL-60(TB) leukemia turned out to be 52.3 µM; with A549 NSCLC, 56 µM; in the assay on NCI-H522 lung, 56 µM; with SK-MEL-28 melanoma, 47.5 µM; in the assay with NCI-H23 lung it was 90.7 µM; with MALME-3M melanoma, 26.3 µM.

For `CCCCCCCCCCCCC(O)c1ccc(C#CCCCCCCCCCO)o1` (stereo not drawn), the GI50 in the assay with UO-31 renal is 19.9 µM; in the assay with HCT-116 colon it was 14.4 µM; with A549 NSCLC, 16.9 µM; with NCI-H522 lung, 21 µM; with NCI/ADR-RES ovarian, 18.3 µM; in the assay on SK-MEL-28 melanoma, 37.2 µM. Besides, in the assay on NCI-H23 lung, the GI50 is 26.4 µM. Further, the TGI is 38.5 µM in the assay with UO-31 renal; 27.4 µM in the assay on HCT-116 colon; 32.9 µM in the assay with A549 NSCLC; 45.5 µM with NCI-H522 lung; 34.3 µM with NCI/ADR-RES ovarian; over 100 µM in the assay with SK-MEL-28 melanoma. This compound yielded a TGI in the assay on NCI-H23 lung of 48.8 µM.

As for `O=c1c(-c2ccccc2)c2oc(c1-c1ccccc1)CSCc1cccc(c1)CSC2`, the TGI is over 100 µM with UO-31 renal; over 100 µM in the assay with HCT-116 colon; over 100 µM in the assay with HL-60(TB) leukemia; over 100 µM in the assay with A549 NSCLC; over 100 µM in the assay with NCI-H522 lung; 87.4 µM in the assay with SK-MEL-28 melanoma. Further, the TGI with NCI-H23 lung and in the assay with MALME-3M melanoma was over 100 µM each time.

Take `CCCCN(CCCC)C(=O)C(=O)C(C(=O)c1ccc(OC)cc1)c1ccc(OC)cc1` (stereo not drawn): the TGI with UO-31 renal, with HCT-116 colon, with HL-60(TB) leukemia, in the assay with A549 NSCLC, in the assay on SK-MEL-28 melanoma and with NCI-H23 lung was over 100 µM each time. The same compound came in with a TGI with MALME-3M melanoma of over 100 µM.

Consider `CC(=O)O/N=C(/C)c1ccccc1O`, for which the TGI with UO-31 renal, with HCT-116 colon, in the assay on HL-60(TB) leukemia, in the assay on A549 NSCLC, in the assay with NCI-H522 lung and with SK-MEL-28 melanoma was over 100 µM in each case. The TGI in the assay on NCI-H23 lung and in the assay on MALME-3M melanoma was over 100 µM throughout.

For `COc1cccc(-c2nc(-c3ccc(NC(=O)OC(C)C)cc3)[nH]c2-c2ccnc(Br)c2)c1`, the GI50 in the assay on UO-31 renal was 2.51 µM; with HCT-116 colon, 2.68 µM; with HL-60(TB) leukemia it was 1.38 µM; in the assay with A549 NSCLC, 2.96 µM; with NCI-H522 lung it was 2.48 µM; in the assay with NCI/ADR-RES ovarian, 2.85 µM. For the same compound, the GI50 in the assay with SK-MEL-28 melanoma was 2.55 µM; in the assay with NCI-H23 lung, 2.61 µM; in the assay with MALME-3M melanoma, 2.23 µM. Moreover, the TGI in the assay on UO-31 renal was over 100 µM; in the assay on HCT-116 colon, over 100 µM; in the assay on HL-60(TB) leukemia it was 4.06 µM; in the assay with A549 NSCLC, over 100 µM; in the assay on NCI-H522 lung it was 9.01 µM; in the assay with NCI/ADR-RES ovarian, over 100 µM. Moreover, the TGI with SK-MEL-28 melanoma was over 100 µM; with NCI-H23 lung, 9.54 µM; with MALME-3M melanoma, 7 µM.

As for `CN(C)CCn1c2c3ccccc3ccc2c2oc(=O)c3ccccc3c21`, the TGI was 8.94 µM with UO-31 renal; 29.1 µM in the assay on HCT-116 colon; over 100 µM in the assay with HL-60(TB) leukemia; 15.3 µM with A549 NSCLC; 27.6 µM with NCI-H522 lung; 18.4 µM with SK-MEL-28 melanoma. The TGI is 18.9 µM in the assay with NCI-H23 lung and 26.3 µM in the assay on MALME-3M melanoma.

Regarding `N[C@@H]1CCCC[C@@H]1N.O=P([O-])([O-])CN(CCN(CP(=O)([O-])[O-])CP(=O)([O-])[O-])CP(=O)([O-])[O-].[Pt+2]`, the GI50 with UO-31 renal, in the assay on HCT-116 colon, in the assay on HL-60(TB) leukemia, with A549 NSCLC, with NCI-H522 lung and with SK-MEL-28 melanoma was over 25 µM each time. Also, the GI50 in the assay with NCI-H23 lung and with MALME-3M melanoma was over 25 µM throughout. The TGI in the assay with UO-31 renal, in the assay with HCT-116 colon, in the assay with HL-60(TB) leukemia, with A549 NSCLC, in the assay with NCI-H522 lung and with SK-MEL-28 melanoma was over 25 µM throughout. For the same compound, the TGI in the assay with NCI-H23 lung and in the assay with MALME-3M melanoma was over 25 µM in each case.

For the compound `COc1ccc(C)cc1-c1cc(Sc2ccccc2)c(-c2cc(C)ccc2OC)o1`, the TGI with UO-31 renal, in the assay on HCT-116 colon, with HL-60(TB) leukemia, with A549 NSCLC, in the assay on NCI-H522 lung and in the assay with SK-MEL-28 melanoma was over 31.6 µM throughout. The TGI in the assay on NCI-H23 lung and with MALME-3M melanoma was over 31.6 µM each time.

Consider `Oc1[nH]c2ccccc2c1N=Nc1nc(-c2ccc(Br)cc2)cs1`, for which the TGI with UO-31 renal was 56.2 µM; in the assay with HCT-116 colon, over 100 µM; in the assay with A549 NSCLC, 70.8 µM; in the assay on NCI-H522 lung it was over 100 µM; in the assay with NCI/ADR-RES ovarian, 44.1 µM; in the assay with SK-MEL-28 melanoma, 53.9 µM. The TGI with NCI-H23 lung is over 100 µM.

Consider `CC(=O)NNc1nc(C)c(C(=O)/C=C/c2ccc(NC(C)=O)cc2)s1`, for which the TGI with UO-31 renal, in the assay with HL-60(TB) leukemia, with A549 NSCLC, with NCI-H522 lung, in the assay with SK-MEL-28 melanoma and in the assay with NCI-H23 lung was over 100 µM each time. The compound further gave a TGI in the assay on MALME-3M melanoma of over 100 µM.

For `C/C(CCn1[nH]c(=O)ccc1=O)=N\NC(=O)C(=O)NN`, the TGI in the assay with UO-31 renal, in the assay with HL-60(TB) leukemia, in the assay on A549 NSCLC, with NCI-H522 lung, in the assay with SK-MEL-28 melanoma and in the assay with NCI-H23 lung was over 100 µM each time. The compound further returned a TGI with MALME-3M melanoma of over 100 µM.

`c1ccc(NCn2cnc3ccccc32)cc1`: the TGI in the assay with UO-31 renal, in the assay on HCT-116 colon, in the assay on A549 NSCLC, in the assay on NCI-H522 lung, in the assay with SK-MEL-28 melanoma and in the assay with NCI-H23 lung was over 100 µM throughout. The same compound returned a TGI with MALME-3M melanoma of over 100 µM.
